From patent US20230405075A1, “PR[…] EXTRACT OR ITS ISOLATED ALKALOIDS AND CANNABIS EXTRACT OR ITS ISOLATED CANNABINOIDS, AND COSMETIC AND/OR PHARMACEUTICAL USE THEREOF” (HERBA INVEST, PTE. LTD., priority 2020, published 2023)

Experiment: Franz cell diffusion assay, transcutaneous permeation
Type: in vitro ADME, porcine
Conditions: in the presence of the combined extracts
Description: The transcutaneous permeation of w/o creams according to Examples 2 and 3 were evaluated by using the Franz cell diffusion assay and compared with the permeation of w/o creams containing Mitragyna alkaloids only and Cannabis cannabinoids only, according to examples 4 and 5.
As known, Franz cell diffusion assay is the most common and reliable method to evaluate the transcutaneous permeation of molecules. Such an assay is well known in the art and a detailed description is not necessary.
The assay conditions were as follows: • cells used: 0.9 and 1.4 mm diameter. • membrane: porcine ear skin, 1 mm thickness. • temperature of incubation: 32° C.
The results of the evaluations are shown in FIG. 1, where the different bars relate to: • a cream according to Example 4, with 1% Mitragyna alkaloids; • a cream according to Example 5, with 1% cannabinoids; • a cream according to Example 2, containing 0.5% purified Mitragyna alkaloids and 0.5% cannabinoids; • a cream with enhancer according to Example 3, also containing 0.5% purified Mitragyna alkaloids and 0.5% cannabinoids, • respectively.
The particular w/o cream according to Example 2 used in the evaluation of transcutaneous permeation had the following composition (percentages in weight): • Diisostearoyl Polyglyceryl-3 Dimer Dilinoleate: 3% • Synthetic Beeswax: 0.2% • Hydrogenated Castor Oil: 0.3% • Paraffinum liquidum: 7% • Isopropyl Myristate: 7% • Hydrogenated polyisobutene: 7.5% • Aqua (water): 60% • Magnesium sulphate heptahydrate: 1% • Mitragyna purified extract (or isolated alkaloids) alcoholic solution: the amount/concentration resulting in a 0.5% alkaloid concentration of in the final formulation; • Cannabis purified extract (or isolated cannabinoids) alcoholic solution: the amount/concentration resulting in a 0.5% […] concentration in the final formulation.

Row | SMILES | concentration detected in Franz cell receptor (order of selective passage)
1 | C=C(C)[C@@H]1CCC(C)=C[C@H]1c1c(O)cc(CCCCC)cc1O [cannabidiol] | increase in concentration
2 | C=C[C@H]1CN2CCc3c([nH]c4cccc(OC)c34)[C@H]2C[C@@H]1/C(=C\OC)C(=O)OC [isopaynantheine] | highest concentrations detected
3 | CC[C@@H]1CN2CCc3c([nH]c4cccc(OC)c34)[C@@H]2C[C@@H]1/C(=C\OC)C(=O)OC [mitragynine] | in lower percentage
4 | C=C[C@H]1CN2CCc3c([nH]c4cccc(OC)c34)[C@@H]2C[C@@H]1/C(=C\OC)C(=O)OC [paynantheine] | in lower percentage
5 | CC[C@@H]1CN2CCc3c([nH]c4cccc(OC)c34)[C@H]2C[C@@H]1/C(=C\OC)C(=O)OC [speciociliatine] | highest concentrations detected
